Experimental findings from patent US12129244B2, “Modulators of Mas-related G-protein receptor X2 and related products and methods” (Escient Pharmaceuticals, Inc., priority 2022, dated 2024) are described below.

The test system of data set [1] is Human LAD2 cells. Put plainly: Mast Cell Beta-Hexosaminidase Release Assay. In kind it is cell-based. The note with it: 500 nM Cortistatin-14, read-out: MRGPRX2 Antagonist Activity. On the procedure: Human LAD2 cells (NIH) were maintained in an incubator at 37° C. with 5% CO2 and cultured in StemPro-34 serum-free media (Gibco 10639011) supplemented with 2 mM L-glutamine, 100 U/ml penicillin, […] streptomycin and 100 ng/ml SCF (Invitrogen PEP0860), at a concentration of 2-5×10^5 cells/mL, with hemidepletion every 1-2 weeks.
Cells were transferred to SCF-Free medium at 2.5×10^5 cells/mL and kept in an incubator overnight. On the day of the assay, cells were washed twice in Assay Buffer (final concentrations 10 mM HEPES, 137 mM NaCl, 5.6 mM D-glucose, 2.7 mM KCl, 1 mM MgCl, 1.8 mM CalCl2, 0.4 mM Na2HPO4·7H2O, 0.04% BSA, pH=7.4) and plated in a 96-well v-bottom plate at 20,000 cells per well in 80 μL Assay Buffer. Antagonist compounds solubilized at 10 mM in DMSO were diluted in Assay Buffer to 10× final desired concentrations as a 10-point curve (10 μM final top concentration with 1:3 serial dilutions) and 10 μL added per well. Plates were then incubated for 1 hour at 37° C. Agonists were diluted in Assay Buffer to 10× desired concentrations and 10 μL of the appropriate agonist added to each well. The final concentration of Cortistatin-14 (Tocris 3374) used in antagonist assays was 500 nM. Final concentrations of DMSO were kept consistent across the plate. Plates were then incubated in a warm air oven for 30 minutes at 37° C., followed by centrifugation at 4° C. for 5 minutes at 450×g. 50 μL supernatant from each well was then transferred to a 96-well flat bottom plate containing 100 μL substrate solution per well (3.5 mg/mL p-Nitrophenyl-N-acetyl-β-D-glucosaminide (Sigma 487052) in Citrate Buffer containing a final concentration of 40 mM Citric Acid, 20 mM Na2HPO4·7H2O, pH=4.5). To the cell pellets left in the remaining assay buffer, 150 μL 0.1% Triton-X-100 was then added to each well, resuspended by pipetting up and down, and 50 μL cell lysates transferred to a second 96-well flat bottom plate containing 100 μL substrate solution per well. Plates containing transferred supernatant and cell lysates were then incubated in a warm air oven for 90 minutes at 37° C. After incubation, 50 μL of 400 mM Glycine buffer (pH 10.7) was added into each well and the plate was read on a Molecular Devices SpectraMax iD5 plate reader (absorbance at 405 nm with reference filter at 620 nm). After background subtraction, the percentage degranulation (percent beta-hexosaminidase release) was calculated as 100×(supernatant values)/(supernatant+lysate values), followed by analysis using GraphPad Prism software to calculate an IC50 value for each compound.
The activity ranges are denoted as follows: “+++++” denotes antagonist activity <100 nM; “++++” denotes antagonist activity between 100 and 500 nM; “+++” denotes activity between 501 and 1000 nM; “++” denotes activity between 1001 and 2500 nM; and “+” denotes activity >2500 nM.

In data set [2] the target is T1, human MRGPRX2 (Homo sapiens, UniProt Q96LB1).
T1 construct: expressed in transfected cells
T1 sequence (Q96LB1 1-330): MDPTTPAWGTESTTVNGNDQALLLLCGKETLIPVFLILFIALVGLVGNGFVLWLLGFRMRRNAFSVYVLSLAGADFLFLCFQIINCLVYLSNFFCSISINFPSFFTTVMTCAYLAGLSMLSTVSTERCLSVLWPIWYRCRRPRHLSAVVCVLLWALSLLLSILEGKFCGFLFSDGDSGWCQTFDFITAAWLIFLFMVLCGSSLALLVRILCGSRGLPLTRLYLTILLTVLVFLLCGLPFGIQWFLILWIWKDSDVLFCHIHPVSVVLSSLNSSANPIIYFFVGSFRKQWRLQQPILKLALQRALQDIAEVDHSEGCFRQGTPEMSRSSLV
Put plainly: MRGPRX2 activity: IP-One HTRF antagonist assay in CHO cells versus Cortistatin-14. The note with it: CHO cells stably expressing human MRGPRX2; versus 0.3 uM Cortistatin-14 agonist; IP-1 HTRF. In kind it is cell-based. The protocol:
CHO cells stably transfected to express human MRGPRX2 were maintained in an incubator at 37° C. with 5% CO2 and grown in F12 (HAM) media with 10% fetal bovine serum (FBS), 1% Glutamax, 1% penicillin/streptomycin, 800 μg/mL Geneticin (G418), and 300 μg/mL Hygromycin B.
Cells were plated in a 384-well assay plate at 20,000 cells per well in 12 μL of Opti-MEM and kept in an incubator overnight. On the day of the assay, compounds solubilized at 10 mM in DMSO were added as a 10-point curve (30 uM final top concentration with 1:3 serial dilutions) using a Tecan D300E digital dispenser. Agonists were diluted in assay buffer (final concentrations of 5.7 mM Tris-HCl, 43 mM NaCl, 50 mM LiCl, pH=8) and 2 μL of the agonist Cortistatin-14 (CPC Scientific, catalog CORT-002) are added to each well. Final concentrations of agonists were 0.3 μM Cortistatin. Final concentrations of DMSO were kept consistent across the plate. Plates were incubated in the dark for 1 h at 37° C. and then for 1 h at room temperature. IP-1 standards and HTRF detection reagents were added according to the IP-One-Gq Kit purchased from Cisbio (part number 62IPAPEJ) and incubated in the dark for 1 h at room temperature. The plate was read on a Molecular Devices SpectraMax iD5 plate reader. The HTRF ratio was calculated from the raw data and graphed using GraphPad Prism to calculate an IC50 value for each compound.
The activity ranges are denoted as follows: “+++++” denotes antagonist activity <100 nM; “++++” denotes antagonist activity between 100 and 500 nM; “+++” denotes activity between 501 and 1000 nM; “[…]” denotes activity between 1001 and 2500 nM; and “+” denotes activity >2500 nM

A short description of data set [3]: Mouse Pharmacokinetics Studies (50 mg/kg oral gavage, plasma LC-MS/MS). It counts as in vivo. Particulars: Male C57BL/6 mice, non-fasted; for AUC(0-t) / Cmax / Tmax: mouse; for Tmax: read-out: PK: Tmax. On the procedure:
Compounds were formulated in 5% DMSO, 5% Solutol, and 90% PBS without Ca and Mg (pH 7.4) at a concentration of 5 mg/mL. Male C57BL/6 mice (n=3/compound) were administered a 50 mg/kg dose of each compound by oral gavage under a non-fasted condition. Blood samples were collected via the saphenous vein onto K2-EDTA at 0.25, 0.5, 1, 2, 4, 8 and 24 hours after dosing, and plasma was prepared and stored at −80° C. until analysis. Plasma sample preparation for analysis was done by protein precipitation using acetonitrile (including Verapamil as an internal standard) followed by centrifugation. Compound concentrations were determined in extracted plasma using LC-MS/MS relative to a 12-point standard curve covering the 1 to 4000 nM range. Non-compartmental analysis using Phoenix WinNonlin was used to estimate pharmacokinetic parameters including area under the curve, clearance, and half-life. The administered dose was confirmed by analysis of residual dosing material by UPLC-UV relative to a single point calibration sample.

As to `CCS(=O)(=O)Nc1cccc(C(=O)N[C@@H]2CCC[C@H](Nc3cc(C(F)(F)F)nc4ccc(F)cc34)C2)c1` [Example 4-304], the IC50 in data set [1] and in data set [2] was under 100 nM throughout.
Turning to `N#Cc1cccc(C(=O)N[C@@H]2CCC[C@H](Nc3cc(C(F)(F)F)nc4ccccc34)C2)c1` [Example 3-4], the IC50 in data set [1] lay in the range of 1000 to 2500 nM. In data set [3], the “AUC 0-24” value stood at 230 µM·h, the AUC(0-t) amounted to 230 µM·h, the peak concentration (Cmax) stood at 30 µM and the Tmax was found to be 3.3 h.
Consider `O=C(N[C@@H]1CCC[C@H](Nc2cc(C(F)(F)F)nc3ccccc23)C1)c1ccc(F)cc1` [Example 1-8], for which, in data set [1], the IC50 is over 2500 nM. Also, in data set [3], the “AUC 0-24” value turned out to be 650 µM·h, the exposure AUC(0-t) amounted to 650 µM·h, the highest level (Cmax) was 48 µM and the time to peak (Tmax) was found to be 8 h.
As for `N#Cc1nn(CC(F)(F)F)cc1C(=O)N[C@@H]1CCC[C@H](Nc2cc(C(F)(F)F)nc3ccc(Cl)cc23)C1` [Example 32, N-[(1R,3S)-3-[[6-chloro-2-(trifluoromethyl)-4-quinolyl]amino]cyclohexyl]-3-cyano-1-(2,2,2-trifluoroethyl)pyrazole-4-carboxamide], the IC50 in data set [1] is under 100 nM. Also, in data set [2], the IC50 is under 100 nM. Also, in data set [3], the “AUC 0-24” value was 390 µM·h, the AUC(0-t) stood at 390 µM·h, the peak level (Cmax) was 39 µM and the time of peak concentration (Tmax) is 4.7 h.
On to `CNc1ccc(C(=O)N[C@@H]2CCC[C@H](Nc3cc(C(F)(F)F)nc4ccc(F)cc34)C2)cc1` [Example 4-303], for which the IC50 in data set [1] and in data set [2] was under 100 nM in each case.
In the case of `O=C(N[C@@H]1CCC[C@H](Nc2cc(C(F)(F)F)nc3ccc(Cl)cc23)C1)c1ccc(B(O)O)cc1` [Example 4-430], the IC50 in data set [1] and in data set [2] was under 100 nM each time.
In the case of `CS(=O)(=O)Nc1cccc(C(=O)N[C@@H]2CCC[C@H](Nc3cc(C(F)(F)F)nc4ccc(Cl)cc34)C2)c1` (stereo in doubt) [Example 14, N-((1R,3S)-3-((6-chloro-2-(trifluoromethyl)quinolin-4-yl)amino)cyclohexyl)-3-(methylsulfonamido)benzamide], the IC50 in data set [1] and in data set [2] was under 100 nM in each case.
Consider `CCS(=O)(=O)Nc1cccc(C(=O)N[C@@H]2CCC[C@H](Nc3cc(C(F)(F)F)nc4ccc(Cl)cc34)C2)c1` [Example 4-241], for which, in data set [1], the IC50 was under 100 nM.
The same measure, in the same setting: the value for `O=C(N[C@@H]1CCC[C@H](Nc2cc(C(F)(F)F)nc3ccc(Cl)cc23)C1)c1ccc(F)nc1` [4-411] was under 100 nM.
On to `N#CCn1cc(C(=O)N[C@@H]2CCC[C@H](Nc3cc(C(F)(F)F)nc4ccc(Cl)cc34)C2)c(Cl)n1` [Example 5-3], for which the IC50 in data set [1] is under 100 nM.
As for `CC1(F)CN(C(=O)N[C@@H]2CCC[C@H](Nc3cc(C(F)(F)F)nc4ccc(Cl)cc34)C2)C1` [Example 45, N-((1R,3S)-3-((6-chloro-2-(trifluoromethyl)quinolin-4-yl)amino)cyclohexyl)-3-fluoro-3-methylazetidine-1-carboxamide], the IC50 in data set [1] fell in the range of 100 to 500 nM.
Regarding `COc1ccc(C(=O)N[C@@H]2CCC[C@H](Nc3cc(C(F)(F)F)nc4ccc(Cl)cc34)C2)cc1` [Example 1, N-((1R,3S)-3-((6-chloro-2-(trifluoromethyl)quinolin-4-yl)amino)cyclohexyl)-4-methoxybenzamide], the IC50 in data set [1] was under 100 nM. For the same molecule, in data set [3], the “AUC 0-24” value turned out to be 78 µM·h, the exposure AUC(0-t) came out at 78 µM·h, the Cmax stood at 6.1 µM and the Tmax was 8 h.
Consider `O=C(N[C@@H]1CCC[C@H](Nc2cc(C(F)(F)F)nc3ccc(Cl)cc23)C1)N1CC2(CC2)C1` [Example 8-9], for which the IC50 in data set [1] is 100 to 500 nM; in data set [2] it was under 100 nM.
In the same order, the values of `O=C(N[C@@H]1CCC[C@H](Nc2cc(C(F)(F)F)nc3ccc(Cl)cc23)C1)c1cccc2ncsc12` [Example 4-225] are under 100 nM and under 100 nM.
On to `CC(C)S(=O)(=O)Nc1ccc(F)c(C(=O)N[C@@H]2CCC[C@H](Nc3cc(C(F)(F)F)nc4ccc(F)cc34)C2)c1F` [Example 4-318], for which, in data set [1], the IC50 is 501 to 1000 nM.
The same measure, in the same setting: the value for `Cc1cc(C(=O)N[C@@H]2CCC[C@H](Nc3cc(C(F)(F)F)nc4ccc(Cl)cc34)C2)cn1CCF` [Example 5-2] was under 100 nM.
Take `Nc1ncc(C(=O)N[C@@H]2CCC[C@H](Nc3cc(C(F)(F)F)nc4ccc(Cl)cc34)C2)cn1` [Example 15, 2-amino-N-[(1R,3S)-3-{[6-chloro-2-(trifluoromethyl)quinolin-4-yl]amino}cyclohexyl]pyrimidine-5-carboxamide]: in data set [1], the IC50 is under 100 nM. Besides, in data set [3], the “AUC 0-24” value is 140 µM·h, the AUC(0-t) turned out to be 140 µM·h, the peak level (Cmax) was 36 µM and the Tmax worked out at 1 h.
With `CC(=O)Nc1cccc(C(=O)N[C@@H]2CCC[C@H](Nc3cc(C(F)(F)F)nc4ccc(F)cc34)C2)c1` [Example 4-306], in data set [1], the IC50 was under 100 nM.
Still for that read-out and setting: the value for `CC(C)C(=O)N1CCN(C(=O)N[C@@H]2CCC[C@H](Nc3cc(C(F)(F)F)nc4ccc(Cl)cc34)C2)CC1` [Example 44, N-((1R,3S)-3-((6-chloro-2-(trifluoromethyl)quinolin-4-yl)amino)cyclohexyl)-4-isobutyrylpiperazine-1-carboxamide] was under 100 nM.
